Experimental data reported in patent US20240317735A1, “HYDROISOQUINOLINE OR HYDRONAPHTHYRIDINE COMPOUNDS FOR THE TREATMENT OF AUTOIMMUNE DISEASE” (Hoffmann-La Roche Inc., priority 2020, published 2024).

Molecular target: T1, TLR9 (Homo sapiens, UniProt Q9NR96)
T1 sequence (Q9NR96 26-1032): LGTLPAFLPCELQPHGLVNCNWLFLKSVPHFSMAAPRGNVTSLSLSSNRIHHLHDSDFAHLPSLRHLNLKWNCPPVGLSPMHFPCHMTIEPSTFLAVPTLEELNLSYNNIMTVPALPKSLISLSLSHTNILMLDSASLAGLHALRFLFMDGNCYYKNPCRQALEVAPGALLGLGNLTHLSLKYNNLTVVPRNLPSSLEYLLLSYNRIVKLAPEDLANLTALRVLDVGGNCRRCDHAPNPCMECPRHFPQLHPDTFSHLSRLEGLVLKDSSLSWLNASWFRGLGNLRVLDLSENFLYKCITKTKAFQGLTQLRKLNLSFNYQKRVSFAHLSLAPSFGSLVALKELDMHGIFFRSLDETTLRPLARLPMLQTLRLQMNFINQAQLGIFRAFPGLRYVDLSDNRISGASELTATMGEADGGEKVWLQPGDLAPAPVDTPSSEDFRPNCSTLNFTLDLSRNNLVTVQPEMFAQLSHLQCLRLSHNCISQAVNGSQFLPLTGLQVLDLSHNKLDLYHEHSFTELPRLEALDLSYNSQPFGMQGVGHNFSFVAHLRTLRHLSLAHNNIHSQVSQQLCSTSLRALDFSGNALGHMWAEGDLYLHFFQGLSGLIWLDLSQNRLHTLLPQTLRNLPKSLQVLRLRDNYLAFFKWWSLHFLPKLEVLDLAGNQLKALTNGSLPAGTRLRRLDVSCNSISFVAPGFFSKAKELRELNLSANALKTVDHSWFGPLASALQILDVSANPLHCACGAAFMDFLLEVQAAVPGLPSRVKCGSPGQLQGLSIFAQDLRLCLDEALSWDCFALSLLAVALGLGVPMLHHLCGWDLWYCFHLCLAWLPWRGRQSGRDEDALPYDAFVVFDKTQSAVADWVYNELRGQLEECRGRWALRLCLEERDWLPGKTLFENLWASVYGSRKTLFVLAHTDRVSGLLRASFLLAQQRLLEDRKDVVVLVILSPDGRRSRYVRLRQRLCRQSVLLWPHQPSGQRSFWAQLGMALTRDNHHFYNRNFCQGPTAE
Assay: HEK293-Blue-hTLR-9 cells assay (SEAP reporter, ODN2006 stimulation)
Type: cell-based
Parameters: host or cells: HEK293 (HEK-Blue hTLR9)
Conditions: HEK293-Blue-hTLR9 cells, ODN2006, 20 hrs; read-out: HEK/hTLR9 IC50
Experimental: The following tests were carried out in order to determine the activity of the compounds of formula (I) and (Ia) in HEK293-Blue-hTLR-7/8/9 cells assay.
A stable HEK293-Blue-hTLR-9 cell line was purchased from InvivoGen (Cat. #: hkb-htlr9, San Diego, California, USA). These cells were originally designed for studying the stimulation of human TLR9 by monitoring the activation of NF-κB. A SEAP (secreted embryonic alkaline phosphatase) reporter gene was placed under the control of the IFN-β minimal promoter fused to five NF-κB and AP-1-binding sites. The SEAP was induced by activating NF-κB and AP-1 via stimulating HEK-Blue hTLR9 cells with TLR9 ligands. Therefore the reporter expression was declined by TLR9 antagonist under the stimulation of a ligand, such as ODN2006 (Cat. #: tlrl-2006-1, Invivogen, San Diego, California, USA), for incubation of 20 hrs. The cell culture supernatant SEAP reporter activity was determined using QUANTI-Blue™ kit (Cat. #: rep-qb1, Invivogen, San Diego, California, USA) at a wavelength of 640 nm, a detection medium that turns purple or blue in the presence of alkaline phosphatase.
HEK293-Blue-hTLR9 cells were incubated at a density of 250,000-450,000 cells/mL in a volume of 170 μL in a 96-well plate in Dulbecco's Modified Eagle's medium (DMEM) containing 4.5 g/L glucose, 50 U/mL penicillin, […], […], 2 mM L-glutamine, 10% (v/v) heat-inactivated fetal bovine serum with addition of 20 μL test compound in a serial dilution in the presence of final DMSO at 1% and 10 μL of 20 uM ODN2006 in above DMEM, perform incubation under 37° C. in a CO2 incubator for 20 hrs. Then 20 μL of the supernatant from each well was incubated with 180 μL Quanti-blue substrate solution at 37° C. for 2 h and the absorbance was read at 620˜655 nm using a spectrophotometer.
The signaling pathway that TLR9 activation leads to downstream NF-κB activation has been widely accepted, and therefore similar reporter assay was modified for evaluating TLR9 antagonist.

IC50 | Structure (SMILES)
326 nM | C[C@H]1CN(c2ccnc3c2cnn3C)Cc2ccc(N3CCN(S(=O)(=O)C4CCNC4)CC3)cc21 (stereo partly drawn) [Example 33, (4R)-4-methyl-2-(1-methylpyrazolo[3,4-b]pyridin-4-yl)-6-(4-pyrrolidin-3-ylsulfonylpiperazin-1-yl)-3,4-dihydro-1H-isoquinoline]
198 nM | C[C@H]1CN(c2ccnc3c2cnn3C)Cc2ccc(N3CC4(CNC4)CC3=O)cc21 [Example 34, 6-[(4R)-4-methyl-2-(1-methylpyrazolo[3,4-b]pyridin-4-yl)-3,4-dihydro-1H-isoquinolin-6-yl]-2,6-diazaspiro[3.4]octan-7-one]
182 nM | C[C@H]1CN(c2ccnc3c2cnn3C)Cc2ccc(N3CC4(CCNC4)OC3=O)cc21 (stereo partly drawn) [Example 35, 3-[(4R)-4-methyl-2-(1-methylpyrazolo[3,4-b]pyridin-4-yl)-3,4-dihydro-1H-isoquinolin-6-yl]-1-oxa-3,7-diazaspiro[4.4]nonan-2-one]
222 nM | C[C@H]1CN(c2ccnc3c2cnn3C)Cc2ccc(N3CCN(Cc4cn(C)cn4)CC3)cc21 [Example 37, (4R)-4-methyl-6-[4-[(1-methylimidazol-4-yl)methyl]piperazin-1-yl]-2-(1-methylpyrazolo[3,4-b]pyridin-4-yl)-3,4-dihydro-1H-isoquinoline]
147 nM | C[C@H]1CN(c2ccnc3c2cnn3C)Cc2ccc(N3CCN(CCN(C)C)CC3)cc21 [Example 38, N,N-dimethyl-2-[4-[(4R)-4-methyl-2-(1-methylpyrazolo[3,4-b]pyridin-4-yl)-3,4-dihydro-1H-isoquinolin-6-yl]piperazin-1-yl]ethanamine]
326 nM | C[C@H]1CN(c2ccnc3c2cnn3C)Cc2ccc(OCCN3CCNCC3)cc21 [Example 40, (4R)-4-methyl-2-(1-methylpyrazolo[3,4-b]pyridin-4-yl)-6-(2-piperazin-1-ylethoxy)-3,4-dihydro-1H-isoquinoline]
47 nM | C[C@H]1CN(c2ccnc3c2cnn3C)Cc2ccc(OC3CN(C4CCNCC4)C3)cc21 [Example 41, (4R)-4-methyl-2-(1-methylpyrazolo[3,4-b]pyridin-4-yl)-6-[1-(4-piperidyl)azetidin-3-yl]oxy-3,4-dihydro-1H-isoquinoline]
398 nM | C[C@H]1CN(c2ccnc3c2cnn3C)Cc2ccc(O[C@@H]3C[C@H]4CNCCN4C3)cc21 [Example 42, (4R)-4-methyl-2-(1-methylpyrazolo[3,4-b]pyridin-4-yl)-6-[[(7R,8aS)-1,2,3,4,6,7,8,8a-octahydropyrrolo[1,2-a]pyrazin-7-yl]oxy]-3,4-dihydro-1H-isoquinoline]
242 nM | C[C@H]1CN(c2ccnc3c2cnn3C)Cc2ccc(OC[C@H]3CNCCN3C)cc21 [Example 43, (4R)-4-methyl-2-(1-methylpyrazolo[3,4-b]pyridin-4-yl)-6-[[(2R)-1-methylpiperazin-2-yl]methoxy]-3,4-dihydro-1H-isoquinoline]
234 nM | C[C@H]1CN(c2ccnc3c2cnn3C)Cc2ccc(OC[C@@H]3CNCCN3C)cc21 [Example 44, (4R)-4-methyl-2-(1-methylpyrazolo[3,4-b]pyridin-4-yl)-6-[[(2S)-1-methylpiperazin-2-yl]methoxy]-3,4-dihydro-1H-isoquinoline]
350 nM | C[C@H]1CN(c2ccnc3c2cnn3C)Cc2ccc(OC[C@@H]3CNCCN3C=O)cc21 [Example 45, (2S)-2-[[(4R)-4-methyl-2-(1-methylpyrazolo[3,4-b]pyridin-4-yl)-3,4-dihydro-1H-isoquinolin-6-yl]oxymethyl]piperazine-1-carbaldehyde]
360 nM | C[C@H]1CN(c2ccnc3c2cnn3C)Cc2ccc(N3C[C@@H](N)[C@H](O)C3)cc21 [Example 46, trans-4-amino-1-[(4R)-4-methyl-2-(1-methylpyrazolo[3,4-b]pyridin-4-yl)-3,4-dihydro-1H-isoquinolin-6-yl]pyrrolidin-3-ol]
230 nM | Cc1cc(N2Cc3ccc(N4C[C@@H](N)[C@H](O)C4)cc3[C@@H](C)C2)c2cnn(C)c2n1 [Example 47, trans-4-amino-1-[(4R)-2-(1,6-dimethylpyrazolo[3,4-b]pyridin-4-yl)-4-methyl-3,4-dihydro-1H-isoquinolin-6-yl]pyrrolidin-3-ol]
229 nM | Cc1cc(N2Cc3ccc(N4CC5(CNCCO5)C4)cc3[C@@H](C)C2)c2cnn(C)c2n1 [Example 48, 2-[(4R)-2-(1,6-dimethylpyrazolo[3,4-b]pyridin-4-yl)-4-methyl-3,4-dihydro-1H-isoquinolin-6-yl]-5-oxa-2,8-diazaspiro[3.5]nonane]
199 nM | C[C@H]1CN(c2ccnc3c2cnn3C)Cc2ccc(N3CCNC(CO)C3)cc21 (stereo partly drawn) [Example 49, [4-[(4R)-4-methyl-2-(1-methylpyrazolo[3,4-b]pyridin-4-yl)-3,4-dihydro-1H-isoquinolin-6-yl]piperazin-2-yl]methanol]
376 nM | C[C@H]1CN(c2ccnc3c2cnn3C)Cc2ccc(N3CCN[C@@H](CO)C3)cc21 [Example 50, [(2R)-4-[(4R)-4-methyl-2-(1-methylpyrazolo[3,4-b]pyridin-4-yl)-3,4-dihydro-1H-isoquinolin-6-yl]piperazin-2-yl]methanol]
365 nM | C[C@H]1CN(c2ccnc3c2cnn3C)Cc2ccc(N3CCN[C@H](CO)C3)cc21 [Example 51, [(2S)-4-[(4R)-4-methyl-2-(1-methylpyrazolo[3,4-b]pyridin-4-yl)-3,4-dihydro-1H-isoquinolin-6-yl]piperazin-2-yl]methanol]
117 nM | C[C@H]1CN(c2ccnc3c2cnn3C)Cc2ccc(N3CC4(CCNC4)CC3=O)cc21 (stereo partly drawn) [Example 52, 2-[(4R)-4-methyl-2-(1-methylpyrazolo[3,4-b]pyridin-4-yl)-3,4-dihydro-1H-isoquinolin-6-yl]-2,7-diazaspiro[4.4]nonan-3-one]
199 nM | Cc1cc(N2Cc3ccc(N4CCC(N)CC4)nc3[C@@H](C)C2)c2cnn(C)c2n1 [Example 58, 1-[(8S)-6-(1,6-dimethylpyrazolo[3,4-b]pyridin-4-yl)-8-methyl-7,8-dihydro-5H-1,6-naphthyridin-2-yl]piperidin-4-amine]
121 nM | Cc1cc(N2Cc3ccc(N4CCC(C)(N)CC4)nc3[C@@H](C)C2)c2cnn(C)c2n1 [Example 59, 4-methyl-1-[(8S)-6-(1,6-dimethylpyrazolo[3,4-b]pyridin-4-yl)-8-methyl-7,8-dihydro-5H-1,6-naphthyridin-2-yl]piperidin-4-amine]
104 nM | Cc1cc(N2Cc3ccc(N4CCC(N(C)C)CC4)nc3[C@@H](C)C2)c2cnn(C)c2n1 [Example 60, N,N-dimethyl-1-[(8S)-6-(1,6-dimethylpyrazolo[3,4-b]pyridin-4-yl)-8-methyl-7,8-dihydro-5H-1,6-naphthyridin-2-yl]piperidin-4-amine]
129 nM | Cc1cc(N2Cc3ccc(N4CCC(O)(CN(C)C)CC4)nc3[C@@H](C)C2)c2cnn(C)c2n1 [Example 61, 4-[(dimethylamino)methyl]-1-[(8S)-6-(1,6-dimethylpyrazolo[3,4-b]pyridin-4-yl)-8-methyl-7,8-dihydro-5H-1,6-naphthyridin-2-yl]piperidin-4-ol]
